Data set [1] addresses T1, Menin/MLL (terbium chelate-labeled menin, FITC-MBM1 peptide) (Homo sapiens, UniProt O00255, T541A).
T1 construct: Menin (a.a. 1-610-6×his tag) was labeled with terbium cryptate as follows
T1 sequence (O00255 with tags, fused parts or gaps T541A): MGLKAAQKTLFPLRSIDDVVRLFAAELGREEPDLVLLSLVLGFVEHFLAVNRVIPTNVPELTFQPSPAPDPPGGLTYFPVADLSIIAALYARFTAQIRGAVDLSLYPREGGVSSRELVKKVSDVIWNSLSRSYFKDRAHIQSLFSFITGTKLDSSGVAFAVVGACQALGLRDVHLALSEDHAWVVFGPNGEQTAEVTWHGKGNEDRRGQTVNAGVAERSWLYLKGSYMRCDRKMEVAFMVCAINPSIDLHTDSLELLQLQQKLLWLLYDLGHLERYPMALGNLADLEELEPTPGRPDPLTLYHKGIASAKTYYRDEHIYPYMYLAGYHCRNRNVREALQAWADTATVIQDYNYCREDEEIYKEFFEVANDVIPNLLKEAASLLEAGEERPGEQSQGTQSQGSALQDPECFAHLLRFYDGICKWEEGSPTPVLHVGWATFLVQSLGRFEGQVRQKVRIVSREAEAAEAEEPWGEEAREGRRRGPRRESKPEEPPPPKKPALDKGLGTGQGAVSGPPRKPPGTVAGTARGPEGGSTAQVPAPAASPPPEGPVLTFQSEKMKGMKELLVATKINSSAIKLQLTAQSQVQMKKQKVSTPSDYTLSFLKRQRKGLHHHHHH
Nature of the data set: Menin/MLL homogenous time-resolved fluorescence (HTRF) assay. Format: binding. The conditions noted are these: averaged values over all measurements; read-out: Menin HTRF assay (IC50). In short, it runs like this:
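Compound preincubated 5 min with terbium-cryptate-labeled menin (aa 1-610, His-tagged; 100 pM final), then 75 nM FITC-MBM1 peptide added, 15 min at ambient temperature; 0.5% DMSO, Tris pH 7.5 buffer. HTRF ratio 520/490 nm; % inhibition vs saturating competitor, IC50 from 11-point three-fold titration from 31 μM.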
(Time-resolved FRET reads energy transfer from a long-lived donor to a nearby acceptor.)

Data set [2] relates to MV-4-11. Nature of the data set: Proliferation assay (spheroid assay) MV-4-11. It is filed as cell-based, human. Particulars: Homo sapiens, MV4-11, MV-4-11; averaged values over all measurements; read-out: Spheroid assay MV-4-11 (IC50). Summed up:
(§1)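 Cells were grown as spheroids in ultra-low attachment round-bottom wells with compound (0.3% DMSO) for 8 d at 37 °C, imaged every 4 h, with confluence as spheroid size. AUC of confluence versus time (t=0 baseline) was expressed as % of DMSO control, and absolute IC50 came from a least-squares nonlinear fit.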

For data set [3], the system named is K562. As to the kind of experiment: Proliferation assay (spheroid assay) K562 control cell line. Particulars: Homo sapiens; K562 control cell line; averaged values over all measurements; read-out: Spheroid assay K562 (IC50). It is filed as cell-based. How it is done:
(§2) The anti-proliferative effect of menin/MLL protein/protein interaction inhibitor test compounds was assessed in human leukemia cell lines. The cell lines MV-4-11 and MOLM14 harbor MLL translocations and express the MLL fusion proteins MLL-AF4 and MLL-AF9, respectively, as well as the wildtype protein from the second allele. […] K562 and KG1 were used as a control cell lines containing two MLL wildtype alleles in order to exclude compounds that display general cytotoxic effects.
(§3) MV-4-11 and MOLM14 were cultured in RPMI-1640 (Sigma Aldrich) supplemented with 10% fetal bovine serum (HyClone), 2 mM L-glutamine (Sigma Aldrich) and 50 μg/ml gentamycin (Gibco). K562 were propagated in RPMI-1640 (Sigma Aldrich) supplemented with 20% fetal bovine serum (HyClone), 2 mM L-glutamine (Sigma Aldrich) and 50 μg/ml gentamycin (Gibco). KG1 were cultured in Iscove's MDM (Gibco) supplemented with 20% fetal bovine serum (HyClone), 2 mM L-glutamine (Sigma Aldrich) and 50 μg/ml gentamycin (Gibco).
(§4) In order to assess the anti-proliferative effects, 1,500 MV-4-11, 300 MOLM14, 750 K562 or 1,300 KG1 cells were seeded in 200 μl media per well in 96-well round bottom, ultra-low attachment plates (Costar, catalogue number 7007). Cell seeding numbers were chosen based on growth curves to ensure linear growth throughout the experiment. Test compounds were added at different concentrations and the DMSO content was normalized to 0.3%. Cells were incubated for 8 d at 37° C. and 5% CO2. Spheroid like growth was monitored in real-time by live-cell imaging (IncuCyteZOOM, Essenbio, 4× objective) acquiring one image every four hours for 8 d. Confluence (%) as a measure of spheroid size was determined using an integrated analysis tool.
(§5) In order to determine the cumulative effect of the test compounds over time, the area under the curve (AUC) in a plot of confluence against time was calculated. Confluence at the beginning of the experiment (t=0) was used as baseline for the AUC calculation.
(§6) Absolute IC50 values were calculated according to the following procedure: % Control=(AUC sample/AUC control)*100
(§7) AUC control=mean AUC of control values (cells without compound/DMSO as vehicle control)
(§8) A non-linear curve fit was applied using the least squares (ordinary) fit method to the plot of % control versus compound concentration. Based on this, the absolute IC50 value (half maximal inhibitory concentration of the test compound causing an anti-proliferative effect of 50% relative to the vehicle control) was calculated.

Data set [4] has as its system KG1. As to the kind of experiment: Proliferation assay (spheroid assay) KG1 control cell line. It is filed as cell-based. Particulars: Homo sapiens, KG-1, averaged values over all measurements. How it is done: as §2, §3, §4, §5, §6, §7, §8
For data set [5], the system named is MOLM14. As to the kind of experiment: Proliferation assay (spheroid assay) MOLM14. Format: cell-based, human. Particulars: Homo sapiens, MOLM-14, MOLM14; averaged values over all measurements; read-out: Spheroid assay MOLM14 (IC50). In short, it runs like this:
as §1

IC50 and melting point data for twelve compounds are collected here from patent US10611778B2, “Fused bicyclic inhibitors of menin-MLL interaction” (Janssen Pharmaceutica NV, priority 2016, dated 2020).

Where a name gives a salt, the structure may show the parent alone. Some results are limits rather than exact numbers.

One may read the IC50 as the midpoint of a concentration-inhibition curve. What is called melting point is the temperature, or range, at which the solid turns liquid. `O=C([C@@H]1CC2(CC2)CN1)N1CC[C@H]2CN(c3ncnc4sc(CC(F)(F)F)cc34)C[C@H]2C1` (single isomer, unassigned) [Compound 82]: the melting point was 105 °C. Besides, in data set [1], the IC50 is 653 nM. For the same compound, the IC50 in data set [2] came out at 7900 nM.

The compound `FC(F)(F)Cc1cc2c(N3CCC4C(CCN4Cc4ncc[nH]4)C3)ncnc2s1` (stereo not shown) (as salt: HCl) [Compound 22] displayed a melting point of 140 °C.

`FC(F)(F)Cc1cc2c(N3C[C@@H]4CN(Cc5ccccc5)C[C@@H]43)ncnc2s1` [Compound 29] gave a melting point of 134 °C. Further, the concentration for half-maximal inhibition (IC50) in data set [1] was 3450 nM.

In turn, `FC(F)(F)Cc1cc2c(N3C[C@H]4CCN(CC5CCOCC5)C[C@H]4C3)ncnc2s1` (single isomer, unassigned) [Compound 70] showed a melting point of 160 °C. Further, in data set [3], the IC50 is above 15000 nM. In addition, the IC50 in data set [1] came out at 18 nM. This compound also returned an IC50 in data set [4] above 15000 nM. For the same compound, the IC50 in data set [5] stood at 1400 nM. For the same compound, the IC50 in data set [2] amounted to 560 nM.

As to `CC(C)CN1CC[C@@H]2CN(c3ncnc4sc(CC(F)(F)F)cc34)C[C@@H]2C1` (single isomer, unassigned) [Compound 36], the IC50 in data set [3] is above 15000 nM; in data set [1] it was 15 nM; in data set [4], above 15000 nM; in data set [5], 1400 nM; in data set [2], 220 nM.

Turning to `FC(F)(F)Cc1cc2c(N3C[C@@H]4CCN(Cc5ccccc5)C[C@@H]43)ncnc2s1` (single isomer, unassigned) [Compound 30], the melting point turned out to be 140 °C. Also, in data set [1], the IC50 is around 1260 nM.

On to `Cn1cc(CN2CC[C@H]3CN(c4ncnc5sc(CC(F)(F)F)cc45)C[C@H]3C2)cn1` (single isomer, unassigned) [Compound 71B], for which the IC50 in data set [3] was above 15000 nM; in data set [1] it was 54 nM; in data set [4] it was above 15000 nM; in data set [5], 2200 nM; in data set [2] it was 420 nM.

In turn, `O=S(=O)(c1ccccc1)N1CC[C@@H]2CN(c3ncnc4sc(CC(F)(F)F)cc34)CC[C@@H]21` (as salt: HCl) (hydrate or solvate) [Compound 16] gave a melting point of 152 °C.

In turn, `CC(C)CN1CCC2CN(c3ncnc4sc(CC(F)(F)F)cc34)CCC21` (stereo not shown) (as salt: HCl) [Compound 25] registered a melting point of 140 °C.

Compound `FC(F)(F)Cc1cc2c(N3C[C@H]4CCN(Cc5ccccc5)C[C@H]43)ncnc2s1` (single isomer, unassigned) [Compound 31] yielded a melting point of 150 °C. Further, the IC50 in data set [1] was 1080 nM.

For `CC(C)CN1CC[C@H]2CN(c3ncnc4sc(CC(F)(F)F)cc34)C[C@H]2C1` (single isomer, unassigned) [Compound 69], the melting point is 109 °C. The IC50 in data set [1] worked out at 57 nM. For the same compound, the IC50 in data set [2] is 1800 nM.

`O=C([C@@H]1CC2(CC2)CN1)N1CC[C@@H]2CN(c3ncnc4sc(CC(F)(F)F)cc34)C[C@@H]2C1` (single isomer, unassigned) [Compound 81] showed a melting point of 112 °C. Also, in data set [1], the IC50 came to 410 nM. Besides, the IC50 in data set [2] turned out to be 5700 nM.
